According to ChEMBL document CHEMBL4507266, “Data for DCP probe BAY-784” (2021):

What was measured:
[1] = tested on: Tyrosine-protein kinase ABL1 (Homo sapiens), P00519 [Y253F]; settings: Compound concentration 1000.0 nM
[2] = biological target: 5'-AMP-activated protein kinase catalytic subunit alpha-2 (Homo sapiens) (UniProt P54646); settings: Compound concentration 1000.0 nM
[3] = biological target: Aurora kinase B (Homo sapiens) (UniProt Q96GD4); settings: Compound concentration 1000.0 nM
[4] = biological target: Tyrosine-protein kinase Blk (Homo sapiens) (UniProt P51451); settings: Compound concentration 1000.0 nM
Tyrosine-protein kinase Blk (Homo sapiens), sequence (P51451 2-505 limits assumed): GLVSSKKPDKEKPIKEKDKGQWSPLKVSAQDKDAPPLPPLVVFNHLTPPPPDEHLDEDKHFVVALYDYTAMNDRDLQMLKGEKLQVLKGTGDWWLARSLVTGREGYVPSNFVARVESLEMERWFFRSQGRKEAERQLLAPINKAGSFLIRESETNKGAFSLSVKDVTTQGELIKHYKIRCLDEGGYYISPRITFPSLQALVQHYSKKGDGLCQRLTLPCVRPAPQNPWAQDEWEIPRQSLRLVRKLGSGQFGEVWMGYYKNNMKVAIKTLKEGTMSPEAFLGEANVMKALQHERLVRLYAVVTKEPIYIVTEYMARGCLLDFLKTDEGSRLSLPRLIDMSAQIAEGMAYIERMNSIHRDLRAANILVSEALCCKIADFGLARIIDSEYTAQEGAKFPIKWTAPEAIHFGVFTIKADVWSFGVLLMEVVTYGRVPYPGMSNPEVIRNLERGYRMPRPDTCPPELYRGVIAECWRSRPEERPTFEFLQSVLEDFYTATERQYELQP

[5] = biological target: Calcium/calmodulin-dependent protein kinase type 1 (Homo sapiens) (UniProt Q14012); settings: Compound concentration 1000.0 nM
[6] = biological target: Calcium/calmodulin-dependent protein kinase type II subunit delta (Homo sapiens) (UniProt Q13557); settings: Compound concentration 1000.0 nM
[7] = biological target: Cyclin-dependent kinase 13 (Homo sapiens) (UniProt Q14004); settings: Compound concentration 1000.0 nM
[8] = biological target: Serine/threonine-protein kinase 17A (Homo sapiens) (UniProt Q9UEE5); settings: Compound concentration 1000.0 nM
[9] = biological target: Mitogen-activated protein kinase 15 (Homo sapiens) (UniProt Q8TD08); settings: Compound concentration 1000.0 nM
Mitogen-activated protein kinase 15 (Homo sapiens), sequence (Q8TD08 whole entry): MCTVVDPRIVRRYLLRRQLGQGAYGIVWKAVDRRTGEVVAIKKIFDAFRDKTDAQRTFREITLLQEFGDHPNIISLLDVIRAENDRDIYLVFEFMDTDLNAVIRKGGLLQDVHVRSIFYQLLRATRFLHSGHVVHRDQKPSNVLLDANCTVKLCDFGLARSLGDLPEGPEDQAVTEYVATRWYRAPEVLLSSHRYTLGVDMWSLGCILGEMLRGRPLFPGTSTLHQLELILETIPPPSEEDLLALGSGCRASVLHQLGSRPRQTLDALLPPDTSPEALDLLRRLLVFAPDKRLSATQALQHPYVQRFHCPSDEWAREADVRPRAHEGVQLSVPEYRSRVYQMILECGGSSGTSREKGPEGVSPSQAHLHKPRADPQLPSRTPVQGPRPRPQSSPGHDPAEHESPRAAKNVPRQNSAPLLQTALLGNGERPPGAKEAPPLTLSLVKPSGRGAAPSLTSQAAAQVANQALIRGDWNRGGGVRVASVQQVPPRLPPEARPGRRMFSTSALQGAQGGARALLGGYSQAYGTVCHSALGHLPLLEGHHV

[10] = biological target: Serine/threonine-protein kinase/endoribonuclease IRE1 (Homo sapiens) (UniProt O75460); settings: Compound concentration 1000.0 nM
[11] = biological target: Tyrosine-protein kinase Fer (Homo sapiens) (UniProt P16591); settings: Compound concentration 1000.0 nM
[12] = tested on: Fibroblast growth factor receptor 3 (Homo sapiens), P22607 [G697C]; settings: Compound concentration 1000.0 nM
[13] = biological target: Homeodomain-interacting protein kinase 1 (Homo sapiens) (UniProt Q86Z02); settings: Compound concentration 1000.0 nM
[14] = tested on: Mast/stem cell growth factor receptor Kit (Homo sapiens), P10721 [V559D,V654A]; settings: Compound concentration 1000.0 nM
[15] = biological target: LIM domain kinase 2 (Homo sapiens) (UniProt P53671); settings: Compound concentration 1000.0 nM
[16] = biological target: Mitogen-activated protein kinase kinase kinase 15 (Homo sapiens) (UniProt Q6ZN16); settings: Compound concentration 1000.0 nM
Mitogen-activated protein kinase kinase kinase 15 (Homo sapiens), sequence (Q6ZN16 whole entry): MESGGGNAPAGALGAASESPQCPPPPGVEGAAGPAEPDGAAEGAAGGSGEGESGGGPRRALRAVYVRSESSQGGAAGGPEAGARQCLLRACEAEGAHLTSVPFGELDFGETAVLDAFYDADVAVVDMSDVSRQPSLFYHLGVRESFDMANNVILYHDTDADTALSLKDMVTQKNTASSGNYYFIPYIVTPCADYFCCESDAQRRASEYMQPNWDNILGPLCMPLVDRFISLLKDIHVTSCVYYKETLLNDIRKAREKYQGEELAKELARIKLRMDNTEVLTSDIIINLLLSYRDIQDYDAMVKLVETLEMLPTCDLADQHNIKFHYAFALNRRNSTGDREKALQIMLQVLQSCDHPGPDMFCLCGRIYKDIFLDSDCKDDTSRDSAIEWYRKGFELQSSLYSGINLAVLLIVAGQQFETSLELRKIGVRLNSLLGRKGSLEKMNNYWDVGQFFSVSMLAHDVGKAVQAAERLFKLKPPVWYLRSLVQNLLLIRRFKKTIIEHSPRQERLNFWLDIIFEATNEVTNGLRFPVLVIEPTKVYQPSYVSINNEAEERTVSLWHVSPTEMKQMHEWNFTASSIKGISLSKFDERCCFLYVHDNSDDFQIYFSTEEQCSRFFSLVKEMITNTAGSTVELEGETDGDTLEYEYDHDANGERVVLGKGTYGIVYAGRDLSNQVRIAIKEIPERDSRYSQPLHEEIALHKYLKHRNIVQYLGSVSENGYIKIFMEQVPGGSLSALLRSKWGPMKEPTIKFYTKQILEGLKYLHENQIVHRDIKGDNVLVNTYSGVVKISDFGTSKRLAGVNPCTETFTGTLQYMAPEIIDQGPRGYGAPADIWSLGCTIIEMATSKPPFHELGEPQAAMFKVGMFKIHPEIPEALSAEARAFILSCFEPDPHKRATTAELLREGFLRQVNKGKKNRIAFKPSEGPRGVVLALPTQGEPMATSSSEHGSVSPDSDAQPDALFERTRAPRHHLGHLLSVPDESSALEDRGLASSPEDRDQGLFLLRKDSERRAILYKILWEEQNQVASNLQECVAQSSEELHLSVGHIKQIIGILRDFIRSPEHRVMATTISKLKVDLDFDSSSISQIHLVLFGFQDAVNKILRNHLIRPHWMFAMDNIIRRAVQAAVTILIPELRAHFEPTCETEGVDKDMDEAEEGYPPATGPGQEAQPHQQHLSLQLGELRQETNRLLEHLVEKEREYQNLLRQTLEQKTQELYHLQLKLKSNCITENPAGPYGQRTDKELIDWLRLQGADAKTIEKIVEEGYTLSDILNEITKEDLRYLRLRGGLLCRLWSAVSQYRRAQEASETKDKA

[17] = biological target: Mitogen-activated protein kinase kinase kinase kinase 3 (Homo sapiens) (UniProt Q8IVH8); settings: Compound concentration 1000.0 nM
Mitogen-activated protein kinase kinase kinase kinase 3 (Homo sapiens), sequence (Q8IVH8 whole entry): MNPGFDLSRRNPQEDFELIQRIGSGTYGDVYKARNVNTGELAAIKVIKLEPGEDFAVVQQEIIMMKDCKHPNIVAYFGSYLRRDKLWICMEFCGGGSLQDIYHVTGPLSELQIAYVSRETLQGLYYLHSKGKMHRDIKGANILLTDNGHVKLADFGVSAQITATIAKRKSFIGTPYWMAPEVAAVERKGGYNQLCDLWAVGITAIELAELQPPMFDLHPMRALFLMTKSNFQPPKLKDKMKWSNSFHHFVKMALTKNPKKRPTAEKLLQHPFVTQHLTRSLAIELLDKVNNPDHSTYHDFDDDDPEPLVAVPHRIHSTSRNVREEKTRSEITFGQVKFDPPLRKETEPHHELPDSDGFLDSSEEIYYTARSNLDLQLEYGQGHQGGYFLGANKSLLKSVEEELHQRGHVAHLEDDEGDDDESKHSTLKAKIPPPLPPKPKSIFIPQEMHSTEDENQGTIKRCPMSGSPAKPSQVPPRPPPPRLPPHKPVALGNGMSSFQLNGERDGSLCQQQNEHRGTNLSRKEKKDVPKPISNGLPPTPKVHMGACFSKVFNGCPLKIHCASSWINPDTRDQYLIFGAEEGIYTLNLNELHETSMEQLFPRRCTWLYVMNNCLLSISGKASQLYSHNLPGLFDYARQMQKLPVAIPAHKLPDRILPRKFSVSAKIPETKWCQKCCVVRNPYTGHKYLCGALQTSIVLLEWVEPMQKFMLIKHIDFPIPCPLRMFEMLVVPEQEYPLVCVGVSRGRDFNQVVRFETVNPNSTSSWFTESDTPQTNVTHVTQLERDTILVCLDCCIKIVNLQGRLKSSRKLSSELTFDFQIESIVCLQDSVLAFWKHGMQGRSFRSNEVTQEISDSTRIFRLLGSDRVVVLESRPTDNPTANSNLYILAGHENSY

[18] = biological target: MAP kinase-interacting serine/threonine-protein kinase 2 (Homo sapiens) (UniProt Q9HBH9); settings: Compound concentration 1000.0 nM
[19] = biological target: Serine/threonine-protein kinase 38-like (Homo sapiens) (UniProt Q9Y2H1); settings: Compound concentration 1000.0 nM
[20] = biological target: Serine/threonine-protein kinase Nek2 (Homo sapiens) (UniProt P51955); settings: Compound concentration 1000.0 nM
[21] = biological target: Serine/threonine-protein kinase NIM1 (Homo sapiens) (UniProt Q8IY84); settings: Compound concentration 1000.0 nM
Serine/threonine-protein kinase NIM1 (Homo sapiens), sequence (Q8IY84 whole entry): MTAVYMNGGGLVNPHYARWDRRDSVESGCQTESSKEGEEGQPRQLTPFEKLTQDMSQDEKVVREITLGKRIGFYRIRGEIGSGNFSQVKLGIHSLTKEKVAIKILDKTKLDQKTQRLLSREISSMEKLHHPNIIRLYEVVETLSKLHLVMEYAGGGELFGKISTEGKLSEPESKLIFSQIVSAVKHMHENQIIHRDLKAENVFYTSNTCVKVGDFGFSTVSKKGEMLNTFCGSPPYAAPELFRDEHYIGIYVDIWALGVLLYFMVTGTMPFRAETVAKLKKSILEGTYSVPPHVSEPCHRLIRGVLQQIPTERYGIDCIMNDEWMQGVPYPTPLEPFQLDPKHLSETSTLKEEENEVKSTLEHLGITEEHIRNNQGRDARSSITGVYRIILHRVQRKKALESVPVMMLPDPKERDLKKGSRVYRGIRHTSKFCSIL

[22] = biological target: Serine/threonine-protein kinase NLK (Homo sapiens) (UniProt Q9UBE8); settings: Compound concentration 1000.0 nM
[23] = biological target: Phosphatidylinositol 4-phosphate 3-kinase C2 domain-containing subunit beta (Homo sapiens) (UniProt O00750); settings: Compound concentration 1000.0 nM
[24] = tested on: Phosphatidylinositol 4,5-bisphosphate 3-kinase catalytic subunit alpha isoform (Homo sapiens), P42336 [C420R]; settings: Compound concentration 1000.0 nM
[25] = tested on: Phosphatidylinositol 4,5-bisphosphate 3-kinase catalytic subunit alpha isoform (Homo sapiens), P42336 [E542K]; settings: Compound concentration 1000.0 nM
[26] = tested on: Phosphatidylinositol 4,5-bisphosphate 3-kinase catalytic subunit alpha isoform (Homo sapiens), P42336 [M1043I]; settings: Compound concentration 1000.0 nM
[27] = biological target: Protein kinase C epsilon type (Homo sapiens) (UniProt Q02156); settings: Compound concentration 1000.0 nM
[28] = biological target: Proto-oncogene tyrosine-protein kinase ROS (Homo sapiens) (UniProt P08922); settings: Compound concentration 1000.0 nM
[29] = biological target: STE20-like serine/threonine-protein kinase (Homo sapiens) (UniProt Q9H2G2); settings: Compound concentration 1000.0 nM
[30] = biological target: Serine/threonine-protein kinase 33 (Homo sapiens) (UniProt Q9BYT3); settings: Compound concentration 1000.0 nM
Serine/threonine-protein kinase 33 (Homo sapiens), sequence (Q9BYT3 whole entry, looked up): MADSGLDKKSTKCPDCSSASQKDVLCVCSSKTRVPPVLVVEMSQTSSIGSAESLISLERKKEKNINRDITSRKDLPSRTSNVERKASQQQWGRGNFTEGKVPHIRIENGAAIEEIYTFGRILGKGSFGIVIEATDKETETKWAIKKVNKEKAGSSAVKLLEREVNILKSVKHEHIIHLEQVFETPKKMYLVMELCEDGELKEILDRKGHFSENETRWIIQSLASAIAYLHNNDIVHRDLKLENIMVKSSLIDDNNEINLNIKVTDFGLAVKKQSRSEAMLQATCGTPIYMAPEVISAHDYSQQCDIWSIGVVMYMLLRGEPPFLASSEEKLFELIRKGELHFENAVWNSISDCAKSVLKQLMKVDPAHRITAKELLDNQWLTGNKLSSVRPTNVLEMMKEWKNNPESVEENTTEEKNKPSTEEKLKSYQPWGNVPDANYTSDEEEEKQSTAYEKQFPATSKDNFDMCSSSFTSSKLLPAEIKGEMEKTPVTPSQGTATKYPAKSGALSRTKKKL

[31] = biological target: Mitogen-activated protein kinase kinase kinase 7 (Homo sapiens) (UniProt O43318); settings: Compound concentration 1000.0 nM
[32] = biological target: Dual specificity testis-specific protein kinase 1 (Homo sapiens) (UniProt Q15569); settings: Compound concentration 1000.0 nM
[33] = biological target: Dual specificity protein kinase TTK (Homo sapiens) (UniProt P33981); settings: Compound concentration 1000.0 nM
Dual specificity protein kinase TTK (Homo sapiens), sequence (P33981 whole entry): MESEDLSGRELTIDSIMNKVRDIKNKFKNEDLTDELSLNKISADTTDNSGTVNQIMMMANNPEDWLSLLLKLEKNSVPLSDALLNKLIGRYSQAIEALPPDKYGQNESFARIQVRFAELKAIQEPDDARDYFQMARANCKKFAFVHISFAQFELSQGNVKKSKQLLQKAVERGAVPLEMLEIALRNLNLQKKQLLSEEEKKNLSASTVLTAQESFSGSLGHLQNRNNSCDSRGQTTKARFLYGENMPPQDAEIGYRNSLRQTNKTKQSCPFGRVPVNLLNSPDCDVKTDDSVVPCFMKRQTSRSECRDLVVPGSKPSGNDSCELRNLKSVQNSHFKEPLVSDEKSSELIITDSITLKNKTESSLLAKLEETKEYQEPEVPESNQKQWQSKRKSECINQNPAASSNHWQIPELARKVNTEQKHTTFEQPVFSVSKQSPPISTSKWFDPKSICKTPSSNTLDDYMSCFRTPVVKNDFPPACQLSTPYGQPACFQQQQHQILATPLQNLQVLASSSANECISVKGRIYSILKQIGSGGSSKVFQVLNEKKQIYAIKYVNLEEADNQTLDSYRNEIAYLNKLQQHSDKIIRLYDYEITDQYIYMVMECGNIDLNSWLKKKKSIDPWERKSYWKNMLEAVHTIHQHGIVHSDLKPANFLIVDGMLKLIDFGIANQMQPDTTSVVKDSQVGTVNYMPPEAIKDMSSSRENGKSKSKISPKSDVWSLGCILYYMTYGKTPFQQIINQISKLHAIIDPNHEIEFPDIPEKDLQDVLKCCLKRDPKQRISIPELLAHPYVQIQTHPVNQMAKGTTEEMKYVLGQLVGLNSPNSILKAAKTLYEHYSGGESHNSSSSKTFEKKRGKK

[34] = biological target: Serine/threonine-protein kinase WNK2 (Homo sapiens) (UniProt Q9Y3S1); settings: Compound concentration 1000.0 nM
[35] = biological target: 5-hydroxytryptamine receptor 7 (Homo sapiens) (UniProt P34969); settings: Compound concentration 10.0 uM
[36] = biological target: T1, Muscarinic acetylcholine receptor M5 (Homo sapiens) (UniProt P08912); settings: Compound concentration 10.0 uM
T1 sequence (whole entry): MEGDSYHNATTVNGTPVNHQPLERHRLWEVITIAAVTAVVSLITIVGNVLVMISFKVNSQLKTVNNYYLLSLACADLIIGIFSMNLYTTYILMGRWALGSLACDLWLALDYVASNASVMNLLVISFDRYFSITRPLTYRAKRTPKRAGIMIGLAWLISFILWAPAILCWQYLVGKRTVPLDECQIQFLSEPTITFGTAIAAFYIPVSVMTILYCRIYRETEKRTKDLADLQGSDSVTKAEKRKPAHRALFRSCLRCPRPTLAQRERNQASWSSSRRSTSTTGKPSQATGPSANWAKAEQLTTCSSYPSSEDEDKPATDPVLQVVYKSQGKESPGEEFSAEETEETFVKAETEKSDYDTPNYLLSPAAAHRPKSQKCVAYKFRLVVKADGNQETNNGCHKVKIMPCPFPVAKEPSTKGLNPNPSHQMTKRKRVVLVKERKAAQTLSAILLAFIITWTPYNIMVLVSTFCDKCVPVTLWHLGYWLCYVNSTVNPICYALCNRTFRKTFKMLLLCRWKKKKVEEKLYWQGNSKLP

[37] = biological target: Sigma intracellular receptor 2 (Homo sapiens, UniProt Q5BJF2); settings: Compound concentration 10.0 uM

O=C(NCc1ncc(C(F)(F)F)cc1Cl)c1ccc2c(c1)C1(CCS(=O)(=O)CC1)[C@H](C1CC1)N2S(=O)(=O)c1ccc(F)cc1 [BAY-784]
inactive: residual activity [1] 85% | residual activity [2] 100% | residual activity [3] 66% | residual activity [4] 78% | residual activity [5] 84% | residual activity [6] 100% | residual activity [7] 88% | residual activity [8] 100% | residual activity [9] 100% | residual activity [10] 78% | residual activity [11] 100% | residual activity [12] 100% | residual activity [13] 83% | residual activity [14] 100% | residual activity [15] 100% | residual activity [16] 96% | residual activity [17] 100% | residual activity [18] 83% | residual activity [19] 91% | residual activity [20] 89% | residual activity [21] 83% | residual activity [22] 100% | residual activity [23] 100% | residual activity [24] 77% | residual activity [25] 94% | residual activity [26] 93% | residual activity [27] 69% | residual activity [28] 100% | residual activity [29] 100% | residual activity [30] 100% | residual activity [31] 80% | residual activity [32] 91% | residual activity [33] 78% | residual activity [34] 97% | inhibition [35] -8.16% | inhibition [36] -6.43%
active: inhibition [37] 74.9%

O=C(NCc1ncc(C(F)(F)F)cc1Cl)c1ccc2c(c1)C1(CCS(=O)(=O)CC1)[C@@H](C1CC1)N2S(=O)(=O)c1ccc(F)cc1 [BAY-786]
active: residual activity [34] 0% | inhibition [37] 52.7%
inactive: residual activity [1] 100% | residual activity [2] 100% | residual activity [3] 66% | residual activity [4] 100% | residual activity [5] 97% | residual activity [6] 100% | residual activity [7] 89% | residual activity [8] 73% | residual activity [9] 100% | residual activity [10] 65% | residual activity [11] 100% | residual activity [12] 80% | residual activity [13] 70% | residual activity [14] 68% | residual activity [15] 94% | residual activity [16] 78% | residual activity [17] 100% | residual activity [18] 76% | residual activity [19] 94% | residual activity [20] 88% | residual activity [21] 78% | residual activity [22] 89% | residual activity [23] 90% | residual activity [24] 77% | residual activity [25] 82% | residual activity [26] 56% | residual activity [27] 76% | residual activity [28] 100% | residual activity [29] 100% | residual activity [30] 86% | residual activity [31] 63% | residual activity [32] 85% | residual activity [33] 100% | inhibition [35] -4.83% | inhibition [36] -1.92%
